These results are taken from patent publication US12187773B2, “Modified GIP peptide analogues” (Antag Therapeutics ApS, priority 2018, dated 2025).

Type in all cases: cell-based
Experiment [1] concerns the target T1, human GIP receptor (Homo sapiens, UniProt P48546).
T1 sequence (P48546 22-466): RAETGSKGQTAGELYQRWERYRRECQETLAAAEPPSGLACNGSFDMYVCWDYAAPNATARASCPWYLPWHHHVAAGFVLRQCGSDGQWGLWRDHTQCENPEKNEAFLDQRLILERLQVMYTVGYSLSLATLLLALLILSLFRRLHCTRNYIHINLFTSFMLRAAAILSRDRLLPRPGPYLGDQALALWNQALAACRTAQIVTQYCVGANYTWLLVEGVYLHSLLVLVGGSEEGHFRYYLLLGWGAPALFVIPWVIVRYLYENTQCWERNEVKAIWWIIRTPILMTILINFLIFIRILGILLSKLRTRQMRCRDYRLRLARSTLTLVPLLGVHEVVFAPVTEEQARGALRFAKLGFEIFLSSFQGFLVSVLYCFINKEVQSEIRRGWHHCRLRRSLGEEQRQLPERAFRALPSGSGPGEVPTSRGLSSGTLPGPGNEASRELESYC
The experiment in a line: cAMP accumulation, agonism (DiscoveRx HitHunter cAMP XS assay). More on the design: host or cells: COS-7 (transient, calcium phosphate; pCMV-Script vector). The settings on record: for Emax: COS-7, read-out: cAMP agonism, Emax; for cAMP agonism, Emax: Table 1B, DiscoveRx, COS-7 cells. The gist of the method:
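cAMP accumulation measured by HitHunter cAMP XS in COS-7 cells transiently expressing human GIP receptor, after 30 min in HBS with 1 mM IBMX at 37 °C. Antagonists preincubated 10 min before GIP giving 50-80% of maximum, then 20 min more; agonist mode used 30 min ligand exposure.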

In experiment [2] the target is T1, human GIP receptor. The experiment in a line: cAMP agonism (CisBio cAMP Dynamic 2 HTRF assay). The settings on record: for Emax: HEK293, read-out: cAMP agonism, % Efficacy, Table 1C, HEK-293 cells. How it is done:
To test for agonistic properties at the GIP receptor, compounds were diluted and added to cells as described above and incubated for 30 min at 37° C. The resulting increase in intracellular cAMP was determined using the CisBio cAMP Dynamic 2 HTRF Assay Kit as described above.

Experiment [3] addresses T1, human GIP receptor. The experiment can be described thus: cAMP accumulation, antagonism (DiscoveRx HitHunter cAMP XS assay). More on the design: host or cells: COS-7 (transient, calcium phosphate; pCMV-Script vector). The settings on record: Table 1B, DiscoveRx; for cAMP antagonism, % inhib: COS-7 cells, % inhibition of Emax; for IC50: cAMP antagonism, nM (IC50), transiently transfected COS-7 cells. In a few lines:
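Transiently transfected COS-7 cells expressing human GIP receptor, pretreated with 1 mM IBMX in HBS 30 min at 37 °C. Agonism: ligand 30 min at 37 °C; antagonism: 10 min antagonist preincubation, then GIP at 50-80% maximal response for 20 min. cAMP measured by HitHunter cAMP XS.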

The target in experiment [4] is T1, human GIP receptor. The experiment can be described thus: cAMP antagonism (CisBio cAMP Dynamic 2 HTRF assay). Details: pCMV-Script vector. The settings on record: Table 1C, CisBio, HEK-293 cells; for IC50: cAMP antagonism, nM (IC50), agonist GIP1-42 at EC50. In a few lines: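 Four-parameter fits of cAMP dose-response gave pIC50. cAMP fall was quantified by HTRF competition, ratio 665/620 nm after 60 min at room temperature, against a cAMP standard curve.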

Where a SMILES comes first, the peptide text is derived from it. The star is where a group is joined. C16 diacid = O=C(O)CCCCCCCCCCCCCCC(=O)*

For `CC[C@H](C)[C@H](NC(=O)[C@H](CO)NC(=O)[C@H](Cc1ccc(O)cc1)NC(=O)[C@H](CC(=O)O)NC(=O)[C@H](CO)NC(=O)[C@@H](NC(=O)[C@H](Cc1ccccc1)NC(=O)[C@@H](NC(=O)CNC(=O)[C@@H](N)CO)[C@@H](C)O)[C@@H](C)CC)C(=O)N[C@@H](C)C(=O)N[C@@H](CCSC)C(=O)N[C@@H](CC(=O)O)C(=O)N[C@@H](CCCNC(=N)N)C(=O)N[C@H](C(=O)N[C@@H](CCCCNC(=O)CCCCCCCCCCCCCCC(=O)O)C(=O)N[C@@H](CCC(N)=O)C(=O)N[C@@H](CCC(N)=O)C(=O)N[C@@H](CC(=O)O)C(=O)N[C@@H](Cc1ccccc1)C(=O)N[C@H](C(=O)N[C@@H](CC(N)=O)C(=O)N[C@@H](Cc1c[nH]c2ccccc12)C(=O)N[C@@H](CC(C)C)C(=O)N[C@@H](CC(C)C)C(=O)N[C@@H](C)C(=O)N[C@@H](CCC(N)=O)C(=O)N[C@@H](CCCNC(=N)N)C(N)=O)C(C)C)[C@@H](C)CC` [AT498] (H-SGTFISDYSIAMDRIK(C16 diacid)QQDFVNWLLAQR-NH2; N-terminus assumed), the Emax in experiment [1] stood at 6%. In addition, in experiment [2] (Table 1C, HEK-293 cells), the “cAMP agonism, % Efficacy” value is reported as 5%. In experiment [3], the “cAMP antagonism, % inhib” value was 95% and the IC50 turned out to be 21 nM. Also, in experiment [4], the “cAMP antagonism, % inhib” value is listed as 85% and the concentration for half-maximal inhibition (IC50) stood at 13.2 nM.
`CC[C@H](C)[C@H](NC(=O)[C@H](CO)NC(=O)[C@H](Cc1ccc(O)cc1)NC(=O)[C@H](CC(=O)O)NC(=O)[C@H](CO)NC(=O)[C@@H](NC(=O)[C@H](Cc1ccccc1)NC(=O)[C@@H](NC(=O)CNC(=O)[C@@H]1CCCN1)[C@@H](C)O)[C@@H](C)CC)C(=O)N[C@@H](C)C(=O)N[C@@H](CCSC)C(=O)N[C@@H](CC(=O)O)C(=O)N[C@@H](CCCNC(=N)N)C(=O)N[C@H](C(=O)N[C@@H](CCCCNC(=O)CCCCCCCCCCCCCCC(=O)O)C(=O)N[C@@H](CCC(N)=O)C(=O)N[C@@H](CCC(N)=O)C(=O)N[C@@H](CC(=O)O)C(=O)N[C@@H](Cc1ccccc1)C(=O)N[C@H](C(=O)N[C@@H](CC(N)=O)C(=O)N[C@@H](Cc1c[nH]c2ccccc12)C(=O)N[C@@H](CC(C)C)C(=O)N[C@@H](CC(C)C)C(=O)N[C@@H](C)C(=O)N[C@@H](CCC(N)=O)C(=O)N[C@@H](CCCNC(=N)N)C(N)=O)C(C)C)[C@@H](C)CC` [AT500] (H-PGTFISDYSIAMDRIK(C16 diacid)QQDFVNWLLAQR-NH2; N-terminus assumed): the “cAMP agonism, Emax” value in experiment [1] is recorded as “No Agonism”. Besides, in experiment [2], the Emax was found to be 4%. In addition, in experiment [3], the “cAMP antagonism, % inhib” value was found to be 90%. Moreover, in experiment [4], the “cAMP antagonism, % inhib” value came to 77% and the IC50 worked out at 66.8 nM.
For the compound `CC[C@H](C)[C@H](NC(=O)[C@H](CO)NC(=O)[C@H](Cc1ccc(O)cc1)NC(=O)[C@H](CC(=O)O)NC(=O)[C@H](CO)NC(=O)[C@@H](NC(=O)[C@H](Cc1ccccc1)NC(=O)[C@@H](NC(=O)CNC(=O)CN)[C@@H](C)O)[C@@H](C)CC)C(=O)N[C@@H](C)C(=O)N[C@@H](CCSC)C(=O)N[C@@H](CC(=O)O)C(=O)N[C@@H](CCCNC(=N)N)C(=O)N[C@H](C(=O)N[C@@H](CCCCNC(=O)CC[C@H](NC(=O)CCCCCCCCCCCCCCC(=O)O)C(=O)O)C(=O)N[C@@H](CCC(N)=O)C(=O)N[C@@H](CCC(N)=O)C(=O)N[C@@H](CC(=O)O)C(=O)N[C@@H](Cc1ccccc1)C(=O)N[C@H](C(=O)N[C@@H](CC(N)=O)C(=O)N[C@@H](Cc1c[nH]c2ccccc12)C(=O)N[C@@H](CC(C)C)C(=O)N[C@@H](CC(C)C)C(=O)N[C@@H](C)C(=O)N[C@@H](CCC(N)=O)C(=O)N[C@@H](CCCNC(=N)N)C(N)=O)C(C)C)[C@@H](C)CC` [AT502] (HELM PEPTIDE1{G.G.T.F.I.S.D.Y.S.I.A.M.D.R.I.K.Q.Q.D.F.V.N.W.L.L.A.Q.R.[am]}|PEPTIDE2{[O=C(O)CCCCCCCCCCCCCCC(=O)[*:2]].[gGlu]}$PEPTIDE1,PEPTIDE2,16:R3-2:R2$$$V2.0; N-terminus assumed), the Emax in experiment [1] was 5%; in experiment [2], 13%. The “cAMP antagonism, % inhib” value was determined as 85% in experiment [3] and 65% in experiment [4]. In experiment [3], the IC50 stood at 52 nM.
Turning to `CC[C@H](C)[C@H](NC(=O)[C@H](CO)NC(=O)[C@H](Cc1ccc(O)cc1)NC(=O)[C@H](CC(=O)O)NC(=O)[C@H](CO)NC(=O)[C@@H](NC(=O)[C@H](Cc1ccccc1)NC(=O)[C@@H](NC(=O)CNC(=O)[C@@H](N)CO)[C@@H](C)O)[C@@H](C)CC)C(=O)N[C@@H](C)C(=O)N[C@@H](CCSC)C(=O)N[C@@H](CC(=O)O)C(=O)N[C@@H](CCCNC(=N)N)C(=O)N[C@H](C(=O)N[C@@H](CCCCNC(=O)CC[C@H](NC(=O)CCCCCCCCCCCCCCC(=O)O)C(=O)O)C(=O)N[C@@H](CCC(N)=O)C(=O)N[C@@H](CCC(N)=O)C(=O)N[C@@H](CC(=O)O)C(=O)N[C@@H](Cc1ccccc1)C(=O)N[C@H](C(=O)N[C@@H](CC(N)=O)C(=O)N[C@@H](Cc1c[nH]c2ccccc12)C(=O)N[C@@H](CC(C)C)C(=O)N[C@@H](CC(C)C)C(=O)N[C@@H](C)C(=O)N[C@@H](CCC(N)=O)C(=O)N[C@@H](CCCNC(=N)N)C(N)=O)C(C)C)[C@@H](C)CC` [AT504] (HELM PEPTIDE1{S.G.T.F.I.S.D.Y.S.I.A.M.D.R.I.K.Q.Q.D.F.V.N.W.L.L.A.Q.R.[am]}|PEPTIDE2{[O=C(O)CCCCCCCCCCCCCCC(=O)[*:2]].[gGlu]}$PEPTIDE1,PEPTIDE2,16:R3-2:R2$$$V2.0; N-terminus assumed), the “cAMP agonism, Emax” value in experiment [1] is recorded as “No Agonism”. Besides, in experiment [2], the Emax was determined as 0%. Also, in experiment [3], the “cAMP antagonism, % inhib” value came to 90% and the IC50 was 21 nM. Moreover, in experiment [4], the “cAMP antagonism, % inhib” value is reported as 85% and the IC50 is 39.8 nM.
With `CC[C@H](C)[C@H](NC(=O)[C@H](CO)NC(=O)[C@H](Cc1ccc(O)cc1)NC(=O)[C@H](CC(=O)O)NC(=O)[C@H](CO)NC(=O)[C@@H](NC(=O)[C@H](Cc1ccccc1)NC(=O)[C@@H](NC(=O)CNC(=O)[C@@H]1CCCN1)[C@@H](C)O)[C@@H](C)CC)C(=O)N[C@@H](C)C(=O)N[C@@H](CCSC)C(=O)N[C@@H](CC(=O)O)C(=O)N[C@@H](CCCNC(=N)N)C(=O)N[C@H](C(=O)N[C@@H](CCCCNC(=O)CC[C@H](NC(=O)CCCCCCCCCCCCCCC(=O)O)C(=O)O)C(=O)N[C@@H](CCC(N)=O)C(=O)N[C@@H](CCC(N)=O)C(=O)N[C@@H](CC(=O)O)C(=O)N[C@@H](Cc1ccccc1)C(=O)N[C@H](C(=O)N[C@@H](CC(N)=O)C(=O)N[C@@H](Cc1c[nH]c2ccccc12)C(=O)N[C@@H](CC(C)C)C(=O)N[C@@H](CC(C)C)C(=O)N[C@@H](C)C(=O)N[C@@H](CCC(N)=O)C(=O)N[C@@H](CCCNC(=N)N)C(N)=O)C(C)C)[C@@H](C)CC` [AT506] (HELM PEPTIDE1{P.G.T.F.I.S.D.Y.S.I.A.M.D.R.I.K.Q.Q.D.F.V.N.W.L.L.A.Q.R.[am]}|PEPTIDE2{[O=C(O)CCCCCCCCCCCCCCC(=O)[*:2]].[gGlu]}$PEPTIDE1,PEPTIDE2,16:R3-2:R2$$$V2.0; N-terminus assumed), the “cAMP agonism, Emax” value in experiment [1] is reported as “No Agonism”. In addition, the Emax in experiment [2] came to 5%. In addition, in experiment [3], the “cAMP antagonism, % inhib” value is given as 90% and the IC50 worked out at 91 nM. The “cAMP antagonism, % inhib” value in experiment [4] worked out at 78%.
